Assay results: ChEMBL document CHEMBL4376834, “Discovery of 4H-Chromen-4-one Derivatives as a New Class of Selective Rho Kinase (ROCK) Inhibitors, which Showed Potent Activity in ex Vivo Diabetic Retinopathy Models” (J Med Chem, 2019)

Key:
[1] = target: Serine/threonine-protein kinase VRK2 (Homo sapiens, UniProt Q86Y07); test: Inhibition of recombinant human VRK2 (1 to 336 residues) using casein as substrate incubated for 40 mins in presence of [gamma33P]ATP by radiometric scintillation counting analysis
[2] = target: Transcription initiation factor TFIID subunit 1-like (Homo sapiens, UniProt Q8IZX4); test: Inhibition of recombinant human TAF1L (1428 to end residues) using RRRFRPASPLRGP as substrate incubated for 120 mins in presence of [gamma33P]ATP by radiometric scintillation counting analysis
[3] = target: Serine/threonine-protein kinase ULK2 (Homo sapiens, UniProt Q8IYT8); test: Inhibition of recombinant human ULK2 (1 to 306 residues) using casein as substrate incubated for 40 mins in presence of [gamma33P]ATP by radiometric scintillation counting analysis
[4] = target: MAP kinase-interacting serine/threonine-protein kinase 2 (Homo sapiens, UniProt Q9HBH9); test: Inhibition of recombinant full length human MNK2 using myelin basic protein as substrate incubated for 40 mins in presence of [gamma-33ATP by radiometric scintillation counting analysis
[5] = target: Receptor tyrosine-protein kinase erbB-2 (Homo sapiens, UniProt P04626, G778D); test: Inhibition of recombinant human ERBB2 G778D (676 to end residues) using poly(Glu, Tyr) 4:1 as substrate after 40 mins in presence of [gamma-33ATP] by radiometric scintillation counting analysis
[6] = target: Tyrosine-protein kinase ABL2 (Homo sapiens, UniProt P42684); test: Inhibition of human recombinant ARG (48 to end residues) using EAIYAAPFAKKK as substrate incubated for 40 mins in presence of [gamma-33ATP] by radiometric scintillation counting analysis
[7] = Protein binding in human plasma at 1 uM incubated incubated for 5 hrs under shaking conditions by LC-MS analysis; assay type: ADME, cell-free; details: read-out: PPB (converted)
[8] = target: Serine/threonine-protein kinase Sgk2 (Homo sapiens, UniProt Q9HBY8, S416D); test: Inhibition of recombinant human SGK2 S416D mutant (54 to end residues) using GRPRTSSFAEGKK as substrate incubated for 40 mins in presence of [gamma33P]ATP by radiometric scintillation counting analysis
[9] = Half life in rat liver microsomes measured upto 45 mins in presence of NADPH by LC-MS analysis; assay type: ADME, Microsome
[10] = target: Casein kinase I isoform gamma-1 (Homo sapiens, UniProt Q9HCP0); test: Inhibition of recombinant human CK1gamma1(25 to 355 residues) using KRRRALS(p)VAS as substrate incubated for 40 mins in presence of [gamma-33ATP] by radiometric scintillation counting analysis
[11] = target: MAPK/MAK/MRK overlapping kinase (Homo sapiens, UniProt Q9UQ07); test: Inhibition of recombinant human MOK (1 to 343 residues) using RSRSRSRSRSRSR as substrate incubated for 40 mins in presence of [gamma-33ATP by radiometric scintillation counting analysis
[12] = target: Casein kinase I isoform gamma-2 (Homo sapiens, UniProt P78368); test: Inhibition of recombinant human CK1gamma2 (18 to end residues) using KRRRALS(p)VAS as substrate incubated for 40 mins in presence of [gamma-33ATP] by radiometric scintillation counting analysis
[13] = target: Serine/threonine-protein kinase PAK 6 (Homo sapiens, UniProt Q9NQU5); test: Inhibition of recombinant human PAK6 (382 to end residues) using RRRLSFAEPG as substrate measured after 40 mins in presence of [gamma33P]ATP by radiometric scintillation counting analysis
[14] = target: 5'-AMP-activated protein kinase catalytic subunit alpha-2 (Homo sapiens, UniProt P54646); test: Inhibition of human full length AMPKalpha2 recombinant using AMARAASAAALAR as substrate incubated for 40 mins in presence of [gamma-33ATP] by radiometric scintillation counting analysis
[15] = target: Mast/stem cell growth factor receptor Kit (Homo sapiens, UniProt P10721, D816V); test: Inhibition of recombinant human C-Kit D816V mutant (544 to end residues) using poly(Glu, Tyr) 4:1 as substrate incubated 40 mins in presence of [gamma-33ATP] by radiometric scintillation counting analysis
[16] = Inhibition of recombinant human FLT4 V1128L/H1146R double mutant (800 to end residues) using GGEEEEYFELVKK as substrate after 40 mins in presence of [gamma-33ATP] by radiometric scintillation counting analysis
[17] = target: Proto-oncogene tyrosine-protein kinase Src (Homo sapiens, UniProt P12931, T341M); test: Inhibition of recombinant full length human SRC T341M mutant using GGEEEEYFELVKK as substrate incubated for 40 mins in presence of [gamma33P]ATP by radiometric scintillation counting analysis
[18] = target: Mitogen-activated protein kinase kinase kinase kinase 4 (Homo sapiens, UniProt O95819); test: Inhibition of recombinant human MAP4K4 (1 to 328 residues) using RLGRDKYKTLRQI as substrate incubated for 40 mins in presence of [gamma-33ATP by radiometric scintillation counting analysis
[19] = target: Tyrosine-protein kinase BTK (Homo sapiens, UniProt Q06187); test: Inhibition of recombinant full length human BTK using KVEKIGEGTYGVV substrate incubated for 40 mins in presence of [gamma-33ATP] by radiometric scintillation counting analysis
[20] = target: Serine/threonine-protein kinase STK11 (Homo sapiens, UniProt Q15831); test: Inhibition of recombinant full length human LKB1 using LSNLYHQGKFLQT as substrate after 40 mins in presence of [gamma-33ATP] by radiometric scintillation counting analysis
LIM domain kinase 2 = LIM domain kinase 2 (Homo sapiens, UniProt P53671); test: Inhibition of human LIMK2 in presence of 10 uM of ATP by radiometric analysis
[21] = target: cGMP-dependent protein kinase 2 (Homo sapiens, UniProt Q13237); test: Inhibition of recombinant full-length human PRKG2 using KKLRRTLSFAEPG as substrate incubated for 40 mins in presence of [gamma33P]ATP by radiometric scintillation counting analysis
[22] = target: Tyrosine-protein kinase Blk (Homo sapiens, UniProt P51451); test: Inhibition of human full-length recombinant BLK M287V mutant using poly(Glu, Tyr) 4:1 as substrate measured after 40 mins in presence of [gamma33P]ATP by radiometric scintillation counting analysis
Activin receptor type-1B = Activin receptor type-1B (Homo sapiens, UniProt P36896); test: Inhibition of human recombinant ALK4 (150 to end residues) using casein as substrate incubated for 40 mins in presence of [gamma-33P]ATP by radiometric scintillation counting analysis
Aurora kinase C = Aurora kinase C (Homo sapiens, UniProt Q9UQB9); test: Inhibition of human recombinant AURORA-C (35 to end residues) using AKRRRLSSLRA as substrate incubated for 40 mins in presence of [gamma-33ATP] by radiometric scintillation counting analysis
[23] = target: Serine/threonine-protein kinase 16 (Homo sapiens, UniProt O75716); test: Inhibition of human STK16 in presence of 10 uM ATP by radiometric analysis
Serine/threonine-protein kinase 16, sequence (O75716 whole entry): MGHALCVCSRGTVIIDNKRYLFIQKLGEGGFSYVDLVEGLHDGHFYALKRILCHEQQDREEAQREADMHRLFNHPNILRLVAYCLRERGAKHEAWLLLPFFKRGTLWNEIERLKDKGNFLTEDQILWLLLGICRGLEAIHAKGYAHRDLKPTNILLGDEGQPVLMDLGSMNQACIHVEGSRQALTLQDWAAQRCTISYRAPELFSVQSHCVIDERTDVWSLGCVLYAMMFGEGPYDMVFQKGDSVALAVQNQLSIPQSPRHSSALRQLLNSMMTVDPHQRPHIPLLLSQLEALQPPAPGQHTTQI

Activin receptor type-1B, sequence (P36896 whole entry): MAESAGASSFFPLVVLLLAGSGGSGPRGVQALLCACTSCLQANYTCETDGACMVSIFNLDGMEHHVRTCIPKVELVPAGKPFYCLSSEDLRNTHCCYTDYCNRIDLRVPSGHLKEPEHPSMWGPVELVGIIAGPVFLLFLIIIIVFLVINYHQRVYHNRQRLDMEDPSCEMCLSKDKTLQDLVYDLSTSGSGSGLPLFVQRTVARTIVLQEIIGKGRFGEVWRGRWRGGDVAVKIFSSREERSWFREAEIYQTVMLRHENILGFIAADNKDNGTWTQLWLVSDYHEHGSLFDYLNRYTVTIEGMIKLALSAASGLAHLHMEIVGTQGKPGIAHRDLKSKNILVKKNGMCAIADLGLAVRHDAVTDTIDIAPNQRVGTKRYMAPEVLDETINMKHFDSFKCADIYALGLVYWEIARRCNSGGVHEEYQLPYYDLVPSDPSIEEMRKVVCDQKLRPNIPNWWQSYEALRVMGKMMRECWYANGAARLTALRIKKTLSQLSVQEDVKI
Mitogen-activated protein kinase kinase kinase kinase 4, sequence (O95819 whole entry, the tested form may be a part): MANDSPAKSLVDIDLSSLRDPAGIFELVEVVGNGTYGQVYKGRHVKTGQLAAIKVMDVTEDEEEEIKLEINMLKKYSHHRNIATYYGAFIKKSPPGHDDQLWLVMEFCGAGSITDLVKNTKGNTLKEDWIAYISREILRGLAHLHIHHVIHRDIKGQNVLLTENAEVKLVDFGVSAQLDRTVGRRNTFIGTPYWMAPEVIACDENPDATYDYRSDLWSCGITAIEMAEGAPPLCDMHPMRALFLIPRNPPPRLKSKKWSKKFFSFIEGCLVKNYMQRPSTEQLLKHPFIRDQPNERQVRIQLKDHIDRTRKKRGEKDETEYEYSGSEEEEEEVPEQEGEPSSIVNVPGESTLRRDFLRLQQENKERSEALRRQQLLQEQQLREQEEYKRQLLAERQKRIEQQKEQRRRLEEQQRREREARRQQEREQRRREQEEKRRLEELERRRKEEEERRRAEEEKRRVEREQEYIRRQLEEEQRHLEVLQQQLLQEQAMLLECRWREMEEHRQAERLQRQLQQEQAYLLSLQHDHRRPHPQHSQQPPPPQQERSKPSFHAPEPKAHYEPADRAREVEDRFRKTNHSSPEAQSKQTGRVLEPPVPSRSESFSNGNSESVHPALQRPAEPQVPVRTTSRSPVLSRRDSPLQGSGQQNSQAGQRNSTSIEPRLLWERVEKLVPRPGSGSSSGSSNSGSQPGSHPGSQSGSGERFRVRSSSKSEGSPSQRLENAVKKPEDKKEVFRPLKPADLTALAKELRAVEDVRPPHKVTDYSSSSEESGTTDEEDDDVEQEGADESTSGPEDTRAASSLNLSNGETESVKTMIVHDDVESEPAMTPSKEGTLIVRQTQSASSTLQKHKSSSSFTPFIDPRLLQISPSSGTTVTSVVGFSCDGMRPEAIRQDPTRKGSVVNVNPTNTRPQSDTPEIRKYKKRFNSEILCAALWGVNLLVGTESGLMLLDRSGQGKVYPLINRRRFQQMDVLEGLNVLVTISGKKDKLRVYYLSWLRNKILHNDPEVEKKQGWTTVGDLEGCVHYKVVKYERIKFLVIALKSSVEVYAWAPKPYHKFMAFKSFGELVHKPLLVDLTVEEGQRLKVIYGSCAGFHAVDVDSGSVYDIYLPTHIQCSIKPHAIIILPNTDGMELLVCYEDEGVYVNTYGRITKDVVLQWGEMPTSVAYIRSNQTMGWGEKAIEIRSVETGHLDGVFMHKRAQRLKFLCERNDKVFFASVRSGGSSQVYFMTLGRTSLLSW
Serine/threonine-protein kinase Sgk2, sequence (Q9HBY8 as listed by the source S416D): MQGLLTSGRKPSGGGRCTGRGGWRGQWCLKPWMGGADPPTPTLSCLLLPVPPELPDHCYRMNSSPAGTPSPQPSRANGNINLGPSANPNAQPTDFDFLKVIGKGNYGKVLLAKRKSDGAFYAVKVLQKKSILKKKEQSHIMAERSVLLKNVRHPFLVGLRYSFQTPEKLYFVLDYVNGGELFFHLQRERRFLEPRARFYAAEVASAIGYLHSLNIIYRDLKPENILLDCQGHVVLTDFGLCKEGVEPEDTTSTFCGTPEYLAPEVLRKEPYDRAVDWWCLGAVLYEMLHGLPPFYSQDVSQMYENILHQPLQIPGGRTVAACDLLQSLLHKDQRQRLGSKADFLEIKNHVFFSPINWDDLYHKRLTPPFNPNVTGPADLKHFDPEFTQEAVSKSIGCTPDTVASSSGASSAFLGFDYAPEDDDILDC
Transcription initiation factor TFIID subunit 1-like, sequence (Q8IZX4 whole entry, the tested form may be a part): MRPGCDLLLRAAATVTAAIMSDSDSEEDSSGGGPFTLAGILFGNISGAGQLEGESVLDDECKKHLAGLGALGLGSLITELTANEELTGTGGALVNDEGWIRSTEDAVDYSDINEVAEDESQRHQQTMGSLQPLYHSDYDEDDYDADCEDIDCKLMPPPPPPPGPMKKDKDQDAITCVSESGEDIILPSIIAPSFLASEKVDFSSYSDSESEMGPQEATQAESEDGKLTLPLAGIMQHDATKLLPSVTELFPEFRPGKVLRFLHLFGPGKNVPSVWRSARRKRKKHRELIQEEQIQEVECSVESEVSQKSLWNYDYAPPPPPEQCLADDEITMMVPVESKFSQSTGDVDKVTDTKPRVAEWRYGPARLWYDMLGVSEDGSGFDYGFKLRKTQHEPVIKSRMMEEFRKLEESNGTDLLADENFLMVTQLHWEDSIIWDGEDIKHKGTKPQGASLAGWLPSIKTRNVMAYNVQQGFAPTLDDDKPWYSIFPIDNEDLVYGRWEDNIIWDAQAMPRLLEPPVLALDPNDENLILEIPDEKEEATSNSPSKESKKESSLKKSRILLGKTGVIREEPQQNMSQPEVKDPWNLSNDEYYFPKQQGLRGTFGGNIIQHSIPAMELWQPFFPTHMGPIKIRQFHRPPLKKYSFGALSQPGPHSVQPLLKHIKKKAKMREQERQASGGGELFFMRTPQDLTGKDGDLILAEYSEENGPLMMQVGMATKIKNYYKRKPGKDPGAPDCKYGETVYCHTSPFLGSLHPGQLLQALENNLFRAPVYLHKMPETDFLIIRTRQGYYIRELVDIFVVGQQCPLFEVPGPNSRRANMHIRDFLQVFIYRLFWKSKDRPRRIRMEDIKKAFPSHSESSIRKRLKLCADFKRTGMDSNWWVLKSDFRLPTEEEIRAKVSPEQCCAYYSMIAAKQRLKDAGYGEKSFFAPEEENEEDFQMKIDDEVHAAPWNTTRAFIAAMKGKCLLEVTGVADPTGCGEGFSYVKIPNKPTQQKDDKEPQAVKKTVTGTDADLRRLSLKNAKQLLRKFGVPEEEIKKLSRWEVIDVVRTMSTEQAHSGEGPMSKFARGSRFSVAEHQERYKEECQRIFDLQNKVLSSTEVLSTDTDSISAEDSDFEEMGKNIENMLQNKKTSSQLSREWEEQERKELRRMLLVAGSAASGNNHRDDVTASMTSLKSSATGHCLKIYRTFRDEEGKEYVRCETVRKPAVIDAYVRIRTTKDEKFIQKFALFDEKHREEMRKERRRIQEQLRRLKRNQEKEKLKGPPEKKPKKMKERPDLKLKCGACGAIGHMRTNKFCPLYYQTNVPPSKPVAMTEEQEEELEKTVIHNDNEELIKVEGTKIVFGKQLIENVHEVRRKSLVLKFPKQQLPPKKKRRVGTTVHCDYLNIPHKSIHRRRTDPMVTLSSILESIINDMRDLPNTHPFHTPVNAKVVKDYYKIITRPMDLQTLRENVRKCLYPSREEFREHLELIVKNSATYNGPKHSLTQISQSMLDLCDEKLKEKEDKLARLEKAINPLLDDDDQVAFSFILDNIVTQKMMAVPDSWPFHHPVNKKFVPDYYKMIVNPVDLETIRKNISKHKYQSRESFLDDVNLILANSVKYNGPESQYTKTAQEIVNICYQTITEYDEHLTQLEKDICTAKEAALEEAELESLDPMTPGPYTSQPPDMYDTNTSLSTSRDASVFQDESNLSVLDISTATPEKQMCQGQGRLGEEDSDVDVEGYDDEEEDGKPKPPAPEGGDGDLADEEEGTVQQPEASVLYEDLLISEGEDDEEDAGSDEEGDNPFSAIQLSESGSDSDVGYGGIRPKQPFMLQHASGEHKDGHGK
Casein kinase I isoform gamma-2, sequence (P78368 whole entry, canonical isoform): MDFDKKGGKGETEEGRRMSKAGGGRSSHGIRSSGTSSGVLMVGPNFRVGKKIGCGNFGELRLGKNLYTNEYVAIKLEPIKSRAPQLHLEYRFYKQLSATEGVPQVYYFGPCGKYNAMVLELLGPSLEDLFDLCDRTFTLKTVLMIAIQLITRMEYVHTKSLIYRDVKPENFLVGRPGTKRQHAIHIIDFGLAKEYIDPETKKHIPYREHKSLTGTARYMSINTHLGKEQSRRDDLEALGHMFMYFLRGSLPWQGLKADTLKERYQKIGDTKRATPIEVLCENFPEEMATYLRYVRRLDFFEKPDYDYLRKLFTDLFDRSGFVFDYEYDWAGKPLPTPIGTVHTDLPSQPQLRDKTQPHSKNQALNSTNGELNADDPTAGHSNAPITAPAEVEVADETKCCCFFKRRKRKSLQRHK
Aurora kinase C, sequence (Q9UQB9 whole entry): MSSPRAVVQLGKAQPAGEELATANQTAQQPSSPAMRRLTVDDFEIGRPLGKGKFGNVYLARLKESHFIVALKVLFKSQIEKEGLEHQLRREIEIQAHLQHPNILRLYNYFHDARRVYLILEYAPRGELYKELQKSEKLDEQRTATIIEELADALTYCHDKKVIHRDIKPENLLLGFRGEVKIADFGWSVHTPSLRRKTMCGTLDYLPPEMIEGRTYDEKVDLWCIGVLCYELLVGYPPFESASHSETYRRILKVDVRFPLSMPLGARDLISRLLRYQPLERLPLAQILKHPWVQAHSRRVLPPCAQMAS

CN(C)c1ccc(C(=O)Nc2cccc(NC(=O)COc3ccc4c(=O)ccoc4c3)c2)cc1
> 10 µM: IC50 [1] | IC50 [2] | IC50 [3] | IC50 [4] | IC50 [5] | IC50 [6] | IC50 [8] | IC50 [10] | IC50 [11] | IC50 [12] | IC50 [13] | IC50 [14] | IC50 [15] | IC50 [16] | IC50 [17] | IC50 [18] | IC50 [19] | IC50 [20] | IC50 [21] | IC50 [22] | IC50 (Activin receptor type-1B) | IC50 (Aurora kinase C) | IC50 [23]
0.046 µM: IC50 (LIM domain kinase 2)
1.1 min: half-life [9]
0.002: fraction unbound at 5 h, 1 µM [7]
